Results as given in patent publication US20240247266A1, “METHODS AND COMPOSITIONS FOR TREATING AN ANGIOTENSINOGEN- (AGT-) ASSOCIATED DISORDER” (Alnylam Pharmaceuticals, Inc., priority 2021, published 2024).

Legend:
Assay type in all cases: in vivo, human
[1] = tested on: patients with hypertension; assay: Example 5: safety and tolerability during irbesartan co-administration; settings: add-on treatment with zilebesiran
Description: (§1) In a multicenter, randomized, double-blinded, placebo-controlled, single ascending fixed dose study to assess the safety and efficacy of AD-85481 (Zilebesiran) after a single fixed dose administration to subjects having hypertension (ClinicalTrials.gov Identifier: NCT03934307, Part A), a sub-study was performed to assess the safety and tolerability of AD-85481 (Zilebesiran) in hypertensive patients during irbesartan co-administration (NCT03934307, Part E). Briefly, all patients received an open-label single 800 mg fixed dose of AD-85481 by subcutaneous administration on Day 1. On Day 41, patients with a 24-hr mean systolic blood pressure (SBP)≥120 mmHg (N=10) proceeded to receive irbesartan (300 mg oral) once daily from Day 43 to Day 57 for 14 days (FIG. 10).
(§2) The safety and tolerability, change from baseline in serum AGT, and plasma and urine pharmacokinetic parameters were evaluated. Change from baseline in blood pressure was also assessed by 24-hour ABPM.
Safety was reported from the start of the study to Day 85. […] There was one mild SAE of acute anemia in the irbesartan add-on group, but was considered not related to study drug, which was a complication of esophagogastroduodenoscopy with biopsy performed during screening prior to dose of zilebesiran.

[2] = tested on: patients with hypertension; assay: Example 5: blood pressure by 24 hour ABPM with irbesartan add-on; settings: daily add-on for 2 weeks to zilebesiran 800 mg, Day 43-57
Description: as §1, with “10). The safety and tolerability, change from baseline in serum AGT, and plasma and urine pharmacokinetic parameters were evaluated. Change from baseline in blood pressure was also assessed by 24-hour ABPM. Assessments of AD-85481 also included change from baseline in SBP and DBP determined by 24 hour ambulatory blood pressure monitoring (ABPM).” for “10).”

serum AGT = assay: Example 5 (Part E, irbesartan co-administration): serum AGT; settings: add-on 300 mg orally daily after 800 mg AD-85481
Description: as §1, §2

SMILES: CCCCC1=NC2(CCCC2)C(=O)N1Cc1ccc(-c2ccccc2-c2nnn[nH]2)cc1 [irbesartan]
- changes in creatinine or potassium [1]: without clinically significant changes in creatinine or potassium
- effect on systolic and diastolic BP (in words) [2]: further reduced systolic and diastolic BP
- effect on serum AGT levels (serum AGT): no additional effect
